Test results taken from article PMC8459971, “Evaluation of the hepatotoxicity of the novel GPR40 (FFAR1) agonist CPL207280 in the rat and monkey” (PLoS ONE, 2021).
“And” between values parts separate entries of the source, which are not always exact repeats. Equal entries are not always repeated.

Key:
[1] = Viability assay, HepG2 cells, MTT test, 48 h; format: cell-based, human; conditions: human, HepG2 cells, sheet Fig1 panel B (HepG2), 48 h, replicates, read-out: viability, normalized to DMSO-treated controls
Description: (§1) To study the viability of the liver cells, 5 × 10^3 HepG2 (ATCC®) or human primary cells (ThermoFisher Scientific, USA) were seeded in 100 μL of DMEM media (Gibco; Thermo Fisher Scientific, USA) supplemented with fetal bovine serum (FBS)- in a 96-well plate. […] The experiments were performed in triplicates.

HepG2 = assay: Viability assay, HepG2 cells, MTT test, 48 h; format: cell-based, human; conditions: for viability, normalized to DMSO-treated controls: sheet Fig1 panel B (HepG2), replicates, in % (unit assumed)
Description: as §1

[2] = Stability in microsomes, mouse; format: in vitro ADME; conditions: for average DEG [%]: mouse microsomes, with cofactors
Description: The final incubation volume was 500 μL. Two control compounds (verapamil and donepezil) were included for each microsomal species, along with the appropriate vehicle control. The reactions were terminated by transferring 50 μL of incubate to 100 μL methanol containing an internal standard (metoprolol) at appropriate time points (0, 10, 20, 40, 60, and 120 min for the test compound and 0, 5, 10, 20, 40, and 60 min for the control compounds). The termination plates were centrifuged at 4000 x g at 4°C for 30 min to precipitate the protein. The supernatants were then collected for analysis, and LC-MS/MS was used for detection purposes. The system consisted of an Acquity™ Binary Solvent Manager, Acquity™ 4-position heated column manager, 2777 Ultra High Pressure Autosampler, and a Xevo-TQ MS triple quadrupole mass spectrometer (Waters Ltd., Herts, UK). This process was carried out twice.

OAT2v1 = target: T1, OAT2v1 (Homo sapiens, UniProt Q9Y694); assay: Uptake transporter inhibition assay, OAT2v1; format: cell-based; conditions: for Accumulation (counts per minute; CPM) HEK293FT-MOCK / Accumulation (counts per minute; CPM) HEK293FT-OAT2v1: OAT2v1
T1 construct: expressed in transfected cells; host or cells: HEK cells
T1 sequence (Q9Y694 1-546 isoform Q9Y694-2): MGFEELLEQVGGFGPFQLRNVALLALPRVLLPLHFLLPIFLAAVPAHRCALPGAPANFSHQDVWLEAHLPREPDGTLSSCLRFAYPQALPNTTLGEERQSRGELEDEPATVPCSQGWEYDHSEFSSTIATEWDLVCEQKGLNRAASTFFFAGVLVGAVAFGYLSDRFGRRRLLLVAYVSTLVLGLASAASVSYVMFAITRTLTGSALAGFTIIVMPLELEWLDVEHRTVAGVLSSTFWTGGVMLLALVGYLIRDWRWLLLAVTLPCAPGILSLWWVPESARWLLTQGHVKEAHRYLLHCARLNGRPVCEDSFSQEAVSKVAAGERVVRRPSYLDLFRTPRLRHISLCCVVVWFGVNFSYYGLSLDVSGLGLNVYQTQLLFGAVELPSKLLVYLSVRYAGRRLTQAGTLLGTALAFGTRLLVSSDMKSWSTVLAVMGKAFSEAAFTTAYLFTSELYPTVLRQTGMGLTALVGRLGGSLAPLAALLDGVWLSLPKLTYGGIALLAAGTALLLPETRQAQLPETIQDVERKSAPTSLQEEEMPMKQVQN
Description: (§2) For the uptake transporter inhibition assay, cells were washed twice with 100 μL of the appropriate buffer (HK, pH 7.4) for OATP1B1, followed by HBSS (pH 7.4) for (NTCP, OAT1, OAT2v1, OATP1A2, and OATP1B3). Uptake experiments were carried out at 37 ± 1°C in 50 μL of the respective buffer containing the probe substrate and the compound or solvent.

NTCP = target: T2, NTCP (Homo sapiens, UniProt Q14973); assay: Uptake transporter inhibition assay, NTCP; format: cell-based; conditions: for Accumulation (counts per minute; CPM) HEK293-NTCP / Accumulation (counts per minute; CPM) HEK293FT-MOCK: NTCP
T2 construct: expressed in transfected cells; host or cells: HEK cells
T2 sequence (Q14973 1-349): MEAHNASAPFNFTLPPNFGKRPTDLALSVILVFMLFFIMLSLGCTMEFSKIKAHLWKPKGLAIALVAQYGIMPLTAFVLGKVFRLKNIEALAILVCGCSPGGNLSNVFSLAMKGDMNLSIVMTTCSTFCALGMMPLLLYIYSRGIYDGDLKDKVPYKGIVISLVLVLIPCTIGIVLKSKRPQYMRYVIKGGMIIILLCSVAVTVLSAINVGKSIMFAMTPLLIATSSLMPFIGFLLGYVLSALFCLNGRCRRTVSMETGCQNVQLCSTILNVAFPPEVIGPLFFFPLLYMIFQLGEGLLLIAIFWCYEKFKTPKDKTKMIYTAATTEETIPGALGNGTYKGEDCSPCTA
Description: as §2

OATP1A2 = OATP1A2 (Homo sapiens, UniProt P46721); assay: Uptake transporter inhibition assay, OATP1A2; conditions: for Accumulation (counts per minute; CPM) HEK293FT-MOCK / Accumulation (counts per minute; CPM) HEK293FT-OATP1A2: OATP1A2;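 note: cellular uptake of a radiolabeled probe substrate in HBSS pH 7.4 at 37 °C with test compound or solvent, measured by liquid scintillation counting of cell lysates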
Description: For the uptake transporter inhibition assay, cells were washed twice with 100 μL of the appropriate buffer (HK, pH 7.4) for OATP1B1, followed by HBSS (pH 7.4) for (NTCP, OAT1, OAT2v1, OATP1A2, and OATP1B3). Uptake experiments were carried out at 37 ± 1°C in 50 μL of the respective buffer containing the probe substrate and the compound or solvent. […] After the experiment, cells were washed twice with 100 μL of cold appropriate buffer and lysed with 50 μL of 0.1 M NaOH. Radiolabeled probe substrate transport was determined by measuring an aliquot (35 μL) from each well for liquid scintillation counting.

[3] = Mouse (CD) microsomes, mean n = 2
[4] = transformed HEK cells, up to 300μM, n = 2

Chain of OATP1A2 (P46721 whole entry): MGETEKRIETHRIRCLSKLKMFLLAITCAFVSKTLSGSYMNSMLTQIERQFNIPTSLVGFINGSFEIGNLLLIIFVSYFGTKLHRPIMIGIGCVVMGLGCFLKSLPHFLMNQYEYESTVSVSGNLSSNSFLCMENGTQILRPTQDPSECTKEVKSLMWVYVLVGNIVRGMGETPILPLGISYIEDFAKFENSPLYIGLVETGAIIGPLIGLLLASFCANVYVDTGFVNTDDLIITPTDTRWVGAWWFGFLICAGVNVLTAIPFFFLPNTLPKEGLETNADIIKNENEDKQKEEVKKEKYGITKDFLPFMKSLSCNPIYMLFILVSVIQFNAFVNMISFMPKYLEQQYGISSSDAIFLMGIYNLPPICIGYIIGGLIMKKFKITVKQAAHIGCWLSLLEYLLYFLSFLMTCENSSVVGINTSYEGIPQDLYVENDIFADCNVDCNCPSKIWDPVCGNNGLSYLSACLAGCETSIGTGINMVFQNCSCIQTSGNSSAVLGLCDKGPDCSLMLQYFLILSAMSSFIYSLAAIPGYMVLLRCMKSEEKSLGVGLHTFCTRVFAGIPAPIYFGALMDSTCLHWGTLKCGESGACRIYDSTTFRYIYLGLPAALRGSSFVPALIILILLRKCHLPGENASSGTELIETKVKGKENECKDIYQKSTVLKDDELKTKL

Cc1cc(OCCCS(C)(=O)=O)cc(C)c1-c1cccc(COc2ccc3c(c2)OC[C@H]3CC(=O)O)c1 [TAK-875, fasiglifam, reference compound]
viability at 48 h, 25 µM ([1]; 25 uM): 67.5%
viability at 48 h, 50 µM ([1]; 50 uM): 61.2%
effect on growth (HepG2; HepG2, 48 h, 100 μM): abolished the growth
viability (HepG2; HepG2, 48 h, concentrations up to 10 μM): Neither compound exhibited altered viability
IC50 (HepG2; hepatocytes (HepG2 and human primary cells), 48 h, read-out: IC50 in the viability study): ~50 µM
viability, normalized to DMSO-treated controls (HepG2; 48 h, 0.78 uM): 126.396
viability, normalized to DMSO-treated controls (HepG2; 48 h, 3.125 uM): 63.2509
viability, normalized to DMSO-treated controls (HepG2; 48 h, 6.25 uM): 66.4311
viability, normalized to DMSO-treated controls (HepG2; 48 h, 25 uM): 47.9859 and 54.8143
viability, normalized to DMSO-treated controls (HepG2; 48 h, 50 uM): 48.6926 and 45.8734
viability, normalized to DMSO-treated controls (HepG2; 48 h, 100 uM): 25.4386 and 23.9576 and 12.1733
half-life at 3 μM [2, 3]: 5.72 h
microsomal CLint at 3 μM [2, 3]: 4 µL/min/mg
average DEG [%] ([2]; 0 min): 100.0%
average DEG [%] ([2]; 20 min): 83.6%
average DEG [%] ([2]; 40 min): 92.9%
average DEG [%] ([2]; 60 min): 79.0%
Accumulation (counts per minute; CPM) HEK293FT-MOCK (OAT2v1; conc 0.10 µM): 37 CPM and 25 CPM
Accumulation (counts per minute; CPM) HEK293FT-OAT2v1 (OAT2v1; conc 0.10 µM): 4606 CPM and 4412 CPM
Accumulation (counts per minute; CPM) HEK293FT-MOCK (OAT2v1; conc 0.30 µM): 30 CPM
Accumulation (counts per minute; CPM) HEK293FT-OAT2v1 (OAT2v1; conc 0.30 µM): 4740 CPM and 4495 CPM
Accumulation (counts per minute; CPM) HEK293FT-MOCK (OAT2v1; conc 1.00 µM): 33 CPM
Accumulation (counts per minute; CPM) HEK293FT-OAT2v1 (OAT2v1; conc 1.00 µM): 4344 CPM and 4183 CPM
Accumulation (counts per minute; CPM) HEK293FT-MOCK (OAT2v1; conc 3.00 µM): 34 CPM and 20 CPM
Accumulation (counts per minute; CPM) HEK293FT-OAT2v1 (OAT2v1; conc 3.00 µM): 4050 CPM and 3892 CPM
Accumulation (counts per minute; CPM) HEK293FT-MOCK (OAT2v1; conc 10.00 µM): 25 CPM and 18 CPM
Accumulation (counts per minute; CPM) HEK293FT-OAT2v1 (OAT2v1; conc 10.00 µM): 3715 CPM and 3589 CPM
Accumulation (counts per minute; CPM) HEK293FT-MOCK (OAT2v1; conc 30.00 µM): 47 CPM and 27 CPM
Accumulation (counts per minute; CPM) HEK293FT-OAT2v1 (OAT2v1; conc 30.00 µM): 3019 CPM and 2844 CPM
Accumulation (counts per minute; CPM) HEK293FT-MOCK (OAT2v1; conc 100.00 µM): 24 CPM and 30 CPM
Accumulation (counts per minute; CPM) HEK293FT-OAT2v1 (OAT2v1; conc 100.00 µM): 1943 CPM and 1847 CPM
IC50 (OAT2v1; [4]): 62.8 µM
Accumulation (counts per minute; CPM) HEK293-NTCP (NTCP; conc 0.10 µM): 4946 CPM and 5522 CPM
Accumulation (counts per minute; CPM) HEK293FT-MOCK (NTCP; conc 0.10 µM): 31 CPM and 28 CPM
Accumulation (counts per minute; CPM) HEK293-NTCP (NTCP; conc 0.30 µM): 4754 CPM and 4976 CPM
Accumulation (counts per minute; CPM) HEK293FT-MOCK (NTCP; conc 0.30 µM): 28 CPM and 36 CPM
Accumulation (counts per minute; CPM) HEK293-NTCP (NTCP; conc 1.00 µM): 4452 CPM and 4849 CPM
Accumulation (counts per minute; CPM) HEK293FT-MOCK (NTCP; conc 1.00 µM): 23 CPM and 31 CPM
Accumulation (counts per minute; CPM) HEK293-NTCP (NTCP; conc 3.00 µM): 4304 CPM and 4641 CPM
Accumulation (counts per minute; CPM) HEK293FT-MOCK (NTCP; conc 3.00 µM): 25 CPM and 22 CPM
Accumulation (counts per minute; CPM) HEK293-NTCP (NTCP; conc 10.00 µM): 3509 CPM and 4053 CPM
Accumulation (counts per minute; CPM) HEK293FT-MOCK (NTCP; conc 10.00 µM): 28 CPM and 26 CPM
Accumulation (counts per minute; CPM) HEK293-NTCP (NTCP; conc 30.00 µM): 2661 CPM and 2656 CPM
Accumulation (counts per minute; CPM) HEK293FT-MOCK (NTCP; conc 30.00 µM): 25 CPM and 30 CPM
Accumulation (counts per minute; CPM) HEK293-NTCP (NTCP; conc 100.00 µM): 1608 CPM and 1569 CPM
Accumulation (counts per minute; CPM) HEK293FT-MOCK (NTCP; conc 100.00 µM): 25 CPM and 33 CPM
IC50 (NTCP; [4]): 53.1 µM
IC50 (OATP1A2): 10.6 µM
Accumulation (counts per minute; CPM) HEK293FT-MOCK (OATP1A2; conc 0.10 µM): 142 CPM and 152 CPM
Accumulation (counts per minute; CPM) HEK293FT-OATP1A2 (OATP1A2; conc 0.10 µM): 10423 CPM and 10027 CPM
Accumulation (counts per minute; CPM) HEK293FT-MOCK (OATP1A2; conc 0.30 µM): 182 CPM and 209 CPM
Accumulation (counts per minute; CPM) HEK293FT-OATP1A2 (OATP1A2; conc 0.30 µM): 8846 CPM and 9642 CPM
Accumulation (counts per minute; CPM) HEK293FT-MOCK (OATP1A2; conc 1.00 µM): 191 CPM and 201 CPM
Accumulation (counts per minute; CPM) HEK293FT-OATP1A2 (OATP1A2; conc 1.00 µM): 7776 CPM and 7509 CPM
Accumulation (counts per minute; CPM) HEK293FT-MOCK (OATP1A2; conc 3.00 µM): 170 CPM and 194 CPM
Accumulation (counts per minute; CPM) HEK293FT-OATP1A2 (OATP1A2; conc 3.00 µM): 6621 CPM and 5348 CPM
Accumulation (counts per minute; CPM) HEK293FT-MOCK (OATP1A2; conc 10.00 µM): 165 CPM and 156 CPM
Accumulation (counts per minute; CPM) HEK293FT-OATP1A2 (OATP1A2; conc 10.00 µM): 5408 CPM and 5698 CPM
Accumulation (counts per minute; CPM) HEK293FT-MOCK (OATP1A2; conc 30.00 µM): 149 CPM and 181 CPM
Accumulation (counts per minute; CPM) HEK293FT-OATP1A2 (OATP1A2; conc 30.00 µM): 4731 CPM and 4729 CPM
Accumulation (counts per minute; CPM) HEK293FT-MOCK (OATP1A2; conc 100.00 µM): 205 CPM and 204 CPM
Accumulation (counts per minute; CPM) HEK293FT-OATP1A2 (OATP1A2; conc 100.00 µM): 2008 CPM and 2199 CPM
